These are literature values, as cited in patent US20080003280A1, “Combination cough treatment compounds and method of treating common coughs” (priority 2006, published 2008).

Data set [1] deals with cough induced with a capsaicin challenge.
Data set [2] has as its system cough. To be noted: patients with an upper respiratory tract infection; in combination with a decongestant.
Data set [3] relates to cough.

SMILES strings stand for the structures.

`Cn1cnc2c1c(=O)[nH]c(=O)n2C` [Theobromine, 3,7-dihydro-3,7-dimethyl-1H-purine-2,6-dione]: in data set [1] (discovered in the same study), the mucociliary clearance result was “stimulates mucociliary clearance” and the toxicity entry was “low toxicity”. In data set [1] (patients, capsaicin challenge, in comparison to codeine and caffeine, FIG. 2), the antitussive effect result is “strong and long lasting antitussive effect, comparable, in fact to codeine”.
`CN(C)CCC(c1ccc(Br)cc1)c1ccccn1` (stereo not drawn) [brompheniramine]: the effect on cough entry in the data set on cough [2] was “improvement in cough”.
For the molecule `COc1ccc2c(c1)[C@]13CCCC[C@@H]1[C@H](C2)N(C)CC3` [dextromethorphan], the cough suppression entry in the data set with cough [3] (60 mg/dose in adults) is “Significant cough suppression”. Also, the antitussive effect entry in the data set on cough [3] (adults, dose 15-30 mg (30 mg in FIG. 4), versus placebo) is given as “no greater than placebo”.
